Literature values, collected in US20240316039A1, “METHOD OF REDUCING ELEVATED INTRAOCULAR PRESSURE” (SUN PHARMA ADVANCED RESEARCH COMPANY LIMITED, priority 2021, published 2024).
Where two headings read alike, the source gives them in different places.

System: ocular hypertensive eyes and normotensive eyes

SMILES: Brc1c(NC2=NCCN2)ccc2nccnc12 [Brimonidine]
- duration of effect (in vivo): less than 12 hours
- time of peak effect after instillation (in vivo): ≤ 2 h
- peak IOP reduction (normotensive eyes (less than 21 mm Hg)): 6-18%
- peak IOP reduction (ocular hypertensive eyes): 20-25%
